Laboratory results from ChEMBL document CHEMBL1201862, “PubChem BioAssay data set” (2004).
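How tested: cells in 96-well plates exposed to compound for 48 hours at five concentrations. GI50 = concentration required for 50% inhibition of growth.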 Activity calls are given as the source filed them. Cut-off read from the data, not from the text of the source: active = GI50 up to about 1.1 µM and inactive = higher. Peptide text beside a SMILES is read from it. * marks the point of attachment. X27 = Clc1c(Cl)c(Cl)c(O*)c(Cl)c1Cl; Boc = CC(C)(C)OC(=O)*; OBn = c1ccc(CO*)cc1; Bn = c1ccc(C*)cc1

What was measured:
Assay in all cases: NCI anticancer screen, dose series, 48 h
HOP-62 = test system: HOP-62
OVCAR-4 = test system: OVCAR-4
NCI-H460 = test system: NCI-H460
RXF 393 = test system: RXF 393
SW-620 = test system: SW-620
SK-MEL-2 = test system: SK-MEL-2
UACC-257 = test system: UACC-257
RPMI-8226 = test system: RPMI-8226
Malme-3M = test system: Malme-3M
SF-268 = test system: SF-268
SF-295 = test system: SF-295
ACHN = test system: ACHN
U-251 = test system: U-251
SN12C = test system: SN12C
M14 = test system: M14
KM12 = test system: KM12
HT-29 = test system: HT-29
SNB-19 = test system: SNB-19
MDA-MB-231 = test system: MDA-MB-231

Measured: GI50

COc1ccccc1C1C(C(=O)Nc2ccccc2)=C(C)NC(C)=C1C(=O)Nc1ccccc1
inactive: HOP-62 83.8 µM | OVCAR-4 54.8 µM | NCI-H460 44 µM | RXF 393 80.2 µM | SW-620 93.8 µM | SK-MEL-2 32 µM | UACC-257 75.9 µM | RPMI-8226 19.5 µM | Malme-3M > 100 µM | SF-268 > 100 µM | SF-295 76.4 µM | ACHN 39.5 µM | U-251 90.8 µM | SN12C > 100 µM | M14 45 µM | KM12 28.2 µM | HT-29 83.4 µM | SNB-19 > 100 µM

O=c1cc(CBr)c2ccc(O)cc2o1
inactive: HOP-62 17 µM | NCI-H460 63.5 µM | RXF 393 31.8 µM | SW-620 > 100 µM | SK-MEL-2 > 100 µM | UACC-257 64.4 µM | RPMI-8226 38.5 µM | Malme-3M 53.7 µM | SF-268 > 100 µM | SF-295 45.7 µM | ACHN 66.4 µM | U-251 53.3 µM | SN12C 88.7 µM | M14 59.6 µM | KM12 54.1 µM | MDA-MB-231 > 100 µM | HT-29 54.5 µM | SNB-19 84.3 µM

O=C(NCc1ccccc1)c1cc2ccc(O)c(O)c2cn1
inactive: HOP-62 21.3 µM | OVCAR-4 16.6 µM | NCI-H460 21.7 µM | RXF 393 16.6 µM | SW-620 21.4 µM | SK-MEL-2 12.4 µM | UACC-257 15.6 µM | RPMI-8226 19.1 µM | Malme-3M 16.7 µM | SF-268 15.1 µM | SF-295 16.9 µM | ACHN 15.5 µM | U-251 23.3 µM | SN12C 17.6 µM | M14 5.21 µM | KM12 33.2 µM | HT-29 44.1 µM | SNB-19 35.4 µM

CCc1cccc(C)c1NC(=O)C1=C(C)NC(C)=C(C(=O)Nc2c(C)cccc2CC)C1c1ccc2c(c1)OCO2
inactive: HOP-62 20.7 µM | OVCAR-4 20.1 µM | NCI-H460 16.1 µM | RXF 393 13.2 µM | SW-620 20.2 µM | SK-MEL-2 15.1 µM | UACC-257 18.5 µM | RPMI-8226 16.8 µM | Malme-3M 15.6 µM | SF-268 20.3 µM | SF-295 17.5 µM | ACHN 15.5 µM | U-251 15.2 µM | SN12C 19.2 µM | M14 16.1 µM | KM12 16.4 µM | HT-29 20.8 µM | SNB-19 29.1 µM

O=C(NCc1ccccc1)C1C(=O)C(=O)N(Cc2ccccc2)C1=O (stereo not drawn)
inactive: HOP-62 > 100 µM | OVCAR-4 > 100 µM | NCI-H460 > 100 µM | RXF 393 > 100 µM | SW-620 > 100 µM | SK-MEL-2 > 100 µM | UACC-257 > 100 µM | RPMI-8226 > 100 µM | Malme-3M > 100 µM | SF-268 > 100 µM | SF-295 > 100 µM | ACHN > 100 µM | U-251 > 100 µM | SN12C > 100 µM | M14 > 100 µM | KM12 > 100 µM | HT-29 > 100 µM | SNB-19 > 100 µM

CC(C)CC(NC(=O)C(CCC(=O)OCc1ccccc1)NC(=O)OC(C)(C)C)C(=O)NC(COCc1ccccc1)C(=O)NC(Cc1ccccc1)C(=O)Oc1c(Cl)c(Cl)c(Cl)c(Cl)c1Cl (stereo not drawn) (Boc-E(OBn)LS(Bn)F-X27; configuration not given here)
inactive: OVCAR-4 35.6 µM | NCI-H460 27.2 µM | RXF 393 21.4 µM | SW-620 > 100 µM | SK-MEL-2 34 µM | UACC-257 28.2 µM | RPMI-8226 20.5 µM | Malme-3M 33.1 µM | SF-268 35.3 µM | SF-295 25.5 µM | ACHN 23.4 µM | U-251 18.5 µM | SN12C 29.1 µM | M14 28 µM | KM12 20.4 µM | MDA-MB-231 15.6 µM | HT-29 35.6 µM | SNB-19 28.7 µM
